Assays:
[1] = target: WT genotype 1a NS3/4A protease (Hepatitis C virus genotype 1a, UniProt P27958, C1073S/C1078L/C1185S/I1043Q/I1044E/I1098T/L1039E/L1040E/L1047Q/N1200S/T1100M/T1173A); experiment: Isothermal titration calorimetry, WT protease; assay type: binding; settings: for Ki: WT protease, Table S4
[2] = target: A156T NS3/4A protease variant (Hepatitis C virus genotype 1a, UniProt P27958, A1182T/C1073S/C1078L/C1185S/I1043Q/I1044E/I1098T/L1039E/L1040E/L1047Q/N1200S/T1100M/T1173A/V1687N); assay type: binding; settings: binding A156T protease; ITC at 25 °C
[3] = system: A156T NS3/4A protease variant; assay type: binding, Hepatitis C Virus; settings: A156T relative to WT; Table S4
[4] = binding WT protease, ITC at 25 °C

Structure (SMILES): CCc1nc2ccc(OC)cc2nc1O[C@@H]1C[C@H]2C(=O)N[C@]3(C(=O)NS(=O)(=O)C4CC4)C[C@H]3/C=C\CCCCC[C@H](NC(=O)OC(C)(C)C)C(=O)N2C1 [5172-mcP1P3]
- Ki [1]: 1.96 nM
- Ki ([1]; listed as P1–P3): 2 nM
- enthalpy of binding [1, 4]: -5.8 kcal/mol
- entropic contribution to binding (−TΔS) [1, 4]: -6.0 kcal/mol
- enthalpy of binding [2]: -6.3 kcal/mol
- enthalpic change due to A156T mutation [3]: -0.5 kcal/mol
- entropic loss due to A156T mutation [3]: 3.3 kcal/mol

Structure (SMILES): C=C[C@@H]1C[C@]1(NC(=O)[C@@H]1C[C@@H]2CN1C(=O)[C@H](C(C)(C)C)NC(=O)O[C@@H]1C[C@H]1CCCCCc1nc3ccc(OC)cc3nc1O2)C(=O)NS(=O)(=O)C1CC1 [MK-5172, reference compound]
- enthalpic change due to A156T mutation [3]: 2.7 kcal/mol
- entropic loss due to A156T mutation [3]: 2.2 kcal/mol
